In patent publication US11052063B2, “Methods of reducing RLP-C” (Amarin Pharmaceuticals Ireland Limited, priority 2014, dated 2021):

System: Serum RLP-C
Test: 12-week placebo-controlled study (ANCHOR), serum RLP-C by immunoseparation assay, statin-treated patients with fasting TG ≥200 and <500 mg/dl
Format: in vivo, human
Conditions: for Median Change from Baseline in RLP-C vs. Placebo: Hodges-Lehmann estimate; for Median Change from Baseline in RLP-C vs. Placebo / RLP-C Concentration End of Treatment: week 12; for RLP-C Concentration Change: median change from baseline to week 12; for RLP-C Concentration Baseline / RLP-C Concentration End of Treatment: median; for RLP-C Concentration Baseline: before treatment
Description: A multi-center, placebo-controlled, randomized, double-blind, 12-week study was performed to evaluate the efficacy and safety of >96% E-EPA in patients with fasting triglyceride levels≥200 mg/dl and <500 mg/dl despite statin therapy (the mean of two qualifying entry values needed to be ≥185 mg/dl and at least one of the values needed to be ≥200 mg/dl). The primary objective of the study was to determine the efficacy of >96%, by weight of all fatty acids present, ethyl-EPA (“AMR101”) 2 g daily and 4 g daily, compared to placebo, in lowering fasting TG levels in patients with high risk for cardiovascular disease and with fasting TG levels≥200 mg/dl and <500 mg/dl, despite treatment to LDL-C goal on statin therapy. The population for this study was men and women>18 years of age with a body mass index≤45 kg/m^2 with fasting TG levels greater than or equal to 200 mg/dl and less than 500 mg/dl and on a stable does of statin therapy (with or without ezetimibe). The statin was atorvostatin, rosuvastatin or simvastatin. The dose of statin must have been stable for ≥4 weeks prior to the LDL-C/TG baseline qualifying measurement for randomization. The statin dose was optimized such that the patients are at their LDL-C goal at the LDL-C/TG baseline qualifying measurements. The same statin at the same dose was continued until the study ended. Approximately 702 patients were randomized at approximately 80 centers in the U.S. The study was a 18- to 20-week, Phase 3, multi-center study consisting of 2 study periods: (1) A 6- to 8-week screening period that included a diet and lifestyle stabilization, a non-statin lipid-altering treatment washout, and an LDL-C and TG qualifying period and (2) A 12-week, double-blind, randomized, placebo-controlled treatment period. After confirmation of qualifying fasting LDL-C and TG values, eligible patients entered a 12-week, randomized, double-blind treatment period. At Visit 4 (Week 0), patients were randomly assigned to 1 of the following treatment groups: • >96% E-EPA 2 g daily, • >96% E-EPA 4 g daily, or • Placebo. >96% E-EPA was provided in 1 g liquid-filled, oblong, gelatin capsules. The matching placebo capsule was filled with light liquid paraffin and contained 0 g of >96% E-EPA. >96% E-EPA capsules were to be taken with food (i.e. with or at the end of a meal). During the double-blind treatment period, patients were to take 2 capsules (>96% E-EPA or matching placebo) in the morning and 2 capsules in the evening for a total of 4 capsules per day. • Patients in the >96% E-EPA 2 g/day treatment group received 1 >96% E-EPA 1 g capsule and 1 matching placebo capsule in the morning and in the evening. • Patients in the >96% E-EPA 4 g/day treatment group received 2 >96% E-EPA 1 g capsules in the morning and evening. The primary efficacy variable for the double-blind treatment period was percent change in TG from baseline to Week 12 endpoint. […]

[1] = 2 g/day, Baseline TG <259 mg/dl
[2] = 2 g/day, Baseline TG ≥259 mg/dl
[3] = 2 g/day, Lower Statin Intensity
[4] = 2 g/day, Medium and Higher Statin Intensity
[5] = 4 g/day, Baseline TG <259 mg/dl
[6] = 4 g/day, Baseline TG ≥259 mg/dl
[7] = 4 g/day, Lower Statin Intensity
[8] = 4 g/day, Medium and Higher Statin Intensity

CC/C=C\C/C=C\C/C=C\C/C=C\C/C=C\CCCC(=O)OCC [AMR101, ethyl-EPA]
RLP-C compared to placebo (2 g/day treatment group, 12 weeks): reduced RLP-C compared to placebo
Median Change from Baseline in RLP-C vs. Placebo [1]: −16.4%
RLP-C Concentration Change [1]: −8.1%
RLP-C Concentration Baseline [1]: 11.5 mg/dL
RLP-C Concentration End of Treatment [1]: 11.0 mg/dL
Median Change from Baseline in RLP-C vs. Placebo [2]: −18.0%
RLP-C Concentration Change [2]: −17.4%
RLP-C Concentration Baseline [2]: 18.0 mg/dL
RLP-C Concentration End of Treatment [2]: 13.5 mg/dL
Median Change from Baseline in RLP-C vs. Placebo (2 g/day, ITT): −16.7%
RLP-C Concentration Change (2 g/day, ITT): −11.1%
RLP-C Concentration Baseline (2 g/day, ITT): 15.0 mg/dL
RLP-C Concentration End of Treatment (2 g/day, ITT): 11.0 mg/dL
Median Change from Baseline in RLP-C vs. Placebo [3]: 2.7%
RLP-C Concentration Change [3]: −11.1%
RLP-C Concentration Baseline [3]: 15.0 mg/dL
RLP-C Concentration End of Treatment [3]: 11.0 mg/dL
Median Change from Baseline in RLP-C vs. Placebo [4]: −17.3%
RLP-C Concentration Change [4]: −11.1%
RLP-C Concentration Baseline [4]: 15.0 mg/dL
RLP-C Concentration End of Treatment [4]: 11.0 mg/dL
median placebo-adjusted reduction in RLP-C (4 g/day treatment group, 12 weeks, p=0.0001, stated as reduction): 25.8%
reductions in RLP-C compared to baseline (4 g/day treatment group, 12 weeks, stated as reduction): 24.0%
Median Change from Baseline in RLP-C vs. Placebo [5]: −22.2%
RLP-C Concentration Change [5]: −16.0%
RLP-C Concentration Baseline [5]: 11.0 mg/dL
RLP-C Concentration End of Treatment [5]: 9.0 mg/dL
Median Change from Baseline in RLP-C vs. Placebo [6]: −30.6%
RLP-C Concentration Change [6]: −31.3%
RLP-C Concentration Baseline [6]: 17.0 mg/dL
RLP-C Concentration End of Treatment [6]: 11.0 mg/dL
Median Change from Baseline in RLP-C vs. Placebo (4 g/day, ITT): −25.8%
RLP-C Concentration Change (4 g/day, ITT): −24.0%
RLP-C Concentration Baseline (4 g/day, ITT): 13.5 mg/dL
RLP-C Concentration End of Treatment (4 g/day, ITT): 10.0 mg/dL
Median Change from Baseline in RLP-C vs. Placebo [7]: −11.9%
RLP-C Concentration Change [7]: −29.2%
RLP-C Concentration Baseline [7]: 16.0 mg/dL
RLP-C Concentration End of Treatment [7]: 15.0 mg/dL
Median Change from Baseline in RLP-C vs. Placebo [8]: −26.7%
RLP-C Concentration Change [8]: −23.1%
RLP-C Concentration Baseline [8]: 13.0 mg/dL
RLP-C Concentration End of Treatment [8]: 10.0 mg/dL
RLP-C reductions by statin intensity (subjects on moderate- to high-intensity statin therapy compared to lower-intensity statin therapy): greater RLP-C reductions
